Experimental data from patent US20250326744A1, “PIPERAZINE DERIVATIVE OR SALT THEREOF, AND PHARMACEUTICAL COMPOSITION” (priority 2022, published 2025).
Where a name gives a salt, the structure may show the parent alone.

Assays:
mexB (EC) strain = assay: Efflux ability inhibition effect on drug efflux pump MexB (Test Examples 1 and 3): proliferation (OD595) of mexB (EC) strain with EM or LVFX at 1/4 MIC, EC75; type: cell-based, Escherichia coli; conditions: Table 53, Test Example 3, same manner as Test Example 1; for EC75, mexB (EC) strain, LVFX: combined with LVFX at 1/4 MIC; for EC75, mexB (EC) strain, EM: combined with EM at 1/4 MIC
Experimental: The efflux ability inhibition effect of the test compound on the drug efflux pump was evaluated using the bacterial proliferative ability in the presence of EM or LVFX as an index.
EM is a macrolide antibacterial agent and is a drug that is discharged outside the bacteria by MexB and MexY LVFX is a quinolone antibacterial agent and is a drug that is discharged outside the bacteria by MexB and MexY In a case where the test compound has an efflux ability inhibitory ability against the drug efflux pump, the proliferation of bacteria is suppressed by the combined use of EM or LVFX and the test compound, as compared with the case where EM or LVFX is used alone.
A mutant strain (hereinafter, referred to as an “mexB (EC) strain”) obtained by transferring the genes of the main multidrug efflux system MexAB-OprM of Pseudomonas aeruginosa described in Nature, 2013, Vol. 500, pp. 102 to 106 as a plasmid into Escherichia coli strains in which the acrB and tolC genes of the multidrug efflux system AcrAB-TolC were deleted as described in Journal of Infection and Chemotherapy 2008, Vol. 14, pp. 23 to 29, and a gene transfer strain (hereinafter, referred to as an “mexY (EC) strain”) of another main multidrug efflux system MexXY-OprM of Pseudomonas aeruginosa were used for the evaluation of test compounds.
In the mexB (EC) strain, an expression level of MexB of the drug efflux pump is accelerated, and in the mexY (EC) strain, an expression level of MexY of the drug efflux pump is accelerated.
For culturing each Escherichia coli strain, a 96-well plate (amount of culture medium per well: 100 μL) was used and Luria-Bertani broth (LB) culture medium was used. The inoculation amount of the bacteria was set to 10^4 to 5 CFU/well.
The mexB (EC) strain and the mexY (EC) strain were cultured for 16 to 20 hours in a culture medium to which EM or LVFX and test compounds at various concentrations (0 to 800 μM) were added, and the proliferation of the bacterial strains was evaluated by optical turbidity at 595 nm (OD595). The concentration of the antibacterial agents (EM and LVFX) in the culture medium were each set to ¼ of the minimum inhibitory concentration (MIC) (hereinafter, referred to as ¼ MIC) of the single antibacterial agent.
The proliferation of bacteria in a case where the antibacterial agent was added at the concentration of ¼ MIC in a case where the test compound was not added was measured, and compared with the proliferation of bacteria in a case where the test compound was contained, and the lowest concentration of the test compound at which the proliferation was inhibited by 75% or more was defined as the drug efflux pump inhibitory ability of the test compound as 75% inhibitory effect concentration (EC75).
The drug efflux pump inhibitory ability of each test compound in a case of being used in combination with the antibacterial agent against the mexB (EC) strain and the mexY (EC) strain was evaluated as follows according to the value of EC75. • S: EC75≤[…] • A: 12.5 μM<EC75≤25 μM • B: 25 μM<EC75≤100 μM • C: […]
In the same manner as in Test Example 1, the efflux ability inhibition effect of the test compound on the drug efflux pump was evaluated using the bacterial proliferation ability in the presence of EM or LVFX as an index.

mexB (PA) strain = assay: Combinational effect with antibacterial agent against Pseudomonas aeruginosa (Test Examples 2 and 4): mexB (PA) strain with LVFX, TC or AZT at 1/4 MIC, EC99; type: cell-based; conditions: mexB (PA) strain, Test Example 4; for EC99, combinational effect with AZT, mexB (PA): combined with AZT at 1/4 MIC; for EC99, combinational effect with LVFX, mexB (PA): combined with LVFX at 1/4 MIC; for EC99, combinational effect with TC, mexB (PA): combined with TC at 1/4 MIC
How it was run: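 P. aeruginosa mexB (PA) strain, lacking MexCD-OprJ, MexEF-OprN and MexXY and overexpressing MexAB-OprM, grown 16–20 h in CAMHB (10^4–5 CFU/well) with LVFX, TC or AZT at ¼ MIC plus test compound at 0–800 μM. Growth read as OD595; EC99 is the lowest compound concentration giving ≥99% growth inhibition.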

S-3769 strain = assay: Combinational effect with antibacterial agent against Pseudomonas aeruginosa (Test Examples 2 and 4): S-3769 strain with AMK or GM at 1/4 MIC, EC99; type: cell-based; conditions: S-3769 strain, Test Example 4; for EC99, combinational effect with AMK, S-3769 strain: combined with AMK at 1/4 MIC; for EC99, combinational effect with GM, S-3769 strain: combined with GM at 1/4 MIC
How it was run: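 P. aeruginosa S-3769 (clinical isolate, MexY overexpressed) grown 16–20 h in CAMHB, 10^4 to 5 CFU/well, with AMK or GM at ¼ MIC plus test compound 0–800 μM. Growth read as OD595; EC99 is the lowest compound concentration giving ≥99% growth inhibition.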

Compound | EC75, mexB (EC) strain, LVFX (mexB (EC) strain) | EC99, combinational effect with AZT, mexB (PA) (mexB (PA) strain) | EC99, combinational effect with LVFX, mexB (PA) (mexB (PA) strain) | EC99, combinational effect with TC, mexB (PA) (mexB (PA) strain) | EC99, combinational effect with AMK, S-3769 strain (S-3769 strain) | EC99, combinational effect with GM, S-3769 strain (S-3769 strain) | EC75, mexB (EC) strain, EM (mexB (EC) strain)
C=C(Br)c1ccc(Cl)cc1CCN1CCC([C@@H](N)C(=O)N2CCN(Cc3c(F)cccc3OCC)CC2)CC1 [Example 545, Hydrobromide of (R)-2-amino-2-(1-(2-(1-bromovinyl)-5-chlorophenethyl)piperidin-4-yl)-1-(4-(2-ethoxy-6-fluorobenzyl)piperazin-1-yl)ethan-1-one] | A (12.5 μM<EC75≤25 μM) | B (25 μM<EC99≤100 μM) | B (25 μM<EC99≤100 μM) | B (25 μM<EC99≤100 μM) | S (EC99≤12.5 μM) | S (EC99≤12.5 μM) | 
Cl.N[C@@H](C(=O)N1CCN(Cc2c(O)cccc2Cl)CC1)C1CCN(CCc2cc(Cl)ccc2-c2ccccc2)CC1 [Example 574, Hydrochloride of (R)-2-amino-1-(4-(2-chloro-6-hydroxybenzyl)piperazin-1-yl)-2-(1-(2-(4-chloro-[1,1-biphenyl]-2-yl)ethyl)piperidin-4-yl) ethan-1-one] | S (EC75≤12.5 M) | A (12.5 μM<EC99≤25 μM) | A (12.5 μM<EC99≤25 μM) | A (12.5 μM<EC99≤25 μM) | A (12.5 μM<EC99≤25 μM) | B (25 μM<EC99≤100 μM) | 
CSc1ccccc1CN1CCN(C(=O)[C@H](N)C2CCN(CCc3cc(Cl)ccc3-c3cccc(O)c3Cl)CC2)CC1.Cl [Example 613, Hydrochloride of (R)-2-amino-2-(1-(2-(2′,4-dichloro-3′-hydroxy-[1,1-biphenyl]-2-yl)ethyl)piperidin-4-yl)-1-(4-(2-(methylthio)benzyl)piperazin-1-yl) ethan-1-one] | S (EC75≤12.5 M) | S (EC99≤12.5 μM) | S (EC99≤12.5 μM) | S (EC99≤12.5 μM) | S (EC99≤12.5 μM) | A (12.5 μM<EC99≤25 μM) | 
CCOc1cccc(F)c1CN1CCN(C(=O)[C@H](N)C2CCN(CCc3cc(Cl)ccc3C#Cc3ccccc3)CC2)CC1 [Example 546, Hydrobromide of (R)-2-amino-2-(1-(5-chloro-2-(phenylethynyl)phenethyl)piperidin-4-yl)-1-(4-(2-ethoxy-6-fluorobenzyl)piperazin-1-yl)ethan-1-one] | A (12.5 μM<EC75≤25 μM) | C (100 μM<EC99) | C (100 μM<EC99) | A (12.5 μM<EC99≤25 μM) | S (EC99≤12.5 μM) | S (EC99≤12.5 μM) | A (12.5 μM<EC75≤25 μM)
Cn1ccnc1CN1CCN(C(=O)[C@H](N)C2CCN(CCc3cc(Cl)ccc3-c3ccccc3)CC2)CC1 [Example 525, Hydrobromide of (R)-2-amino-2-(1-(2-(4-chloro-[1,1-biphenyl]-2-yl)ethyl)piperidin-4-yl)-1-(4-((1-methyl-1H-imidazol-2-yl)methyl)piperazin-1-yl)ethan-1-one] | B (25 μM<EC75≤100 μM) | C (100 μM<EC99) | C (100 μM<EC99) | C (100 μM<EC99) | C (100 μM<EC99) | C (100 μM<EC99) | 
CCOc1cccnc1CN1CCN(C(=O)[C@H](N)C2CCN(CCc3cc(Cl)ccc3-c3ccccc3)CC2)CC1 [Example 508, Hydrobromide of (R)-2-amino-2-(1-(2-(4-chloro-[1,1-biphenyl]-2-yl)ethyl)piperidin-4-yl)-1-(4-((3-ethoxypyridin-2-yl)methyl)piperazin-1-yl)ethan-1-one] |  | B (25 μM<EC99≤100 μM) | C (100 μM<EC99) | B (25 μM<EC99≤100 μM) | S (EC99≤12.5 μM) | A (12.5 μM<EC99≤25 μM) | A (12.5 μM<EC75≤25 μM)
N[C@@H](C(=O)N1CCN(Cc2ncc3ccccn23)CC1)C1CCN(CCc2cc(Cl)ccc2-c2ccccc2)CC1 [Example 518, Hydrobromide of (R)-2-amino-2-(1-(2-(4-chloro-[1,1-biphenyl]-2-yl)ethyl)piperidin-4-yl)-1-(4-(imidazo[1,5-a]pyridin-3-ylmethyl)piperazin-1-yl)ethan-1-one] | A (12.5 μM<EC75≤25 μM) | C (100 μM<EC99) | C (100 μM<EC99) | C (100 μM<EC99) | B (25 μM<EC99≤100 μM) | B (25 μM<EC99≤100 μM) | 
CCOc1cccc(F)c1CN1CCN(C(=O)[C@H](N)C2CCN(CCc3cc(Cl)ccc3-c3cn(C)nc3C)CC2)CC1 [Example 500, Hydrobromide of (R)-2-amino-2-(1-(5-chloro-2-(1,3-dimethyl-1H-pyrazol-4-yl)phenethyl)piperidin-4-yl)-1-(4-(2-ethoxy-6-fluorobenzyl)piperazin-1-yl)ethan-1-one] |  | C (100 μM<EC99) | C (100 μM<EC99) | C (100 μM<EC99) | A (12.5 μM<EC99≤25 μM) | A (12.5 μM<EC99≤25 μM) | A (12.5 μM<EC75≤25 μM)
CCOc1cccc(F)c1CN1CCN(C(=O)[C@H](N)C2CCN(CCc3cc(-c4ccccc4)ccc3Cl)CC2)CC1 [Example 566, Hydrobromide of (R)-2-amino-2-(1-(2-(4-chloro-[1,1-biphenyl]-3-yl)ethyl)piperidin-4-yl)-1-(4-(2-ethoxy-6-fluorobenzyl)piperazin-1-yl)ethan-1-one] |  | B (25 μM<EC99≤100 μM) | B (25 μM<EC99≤100 μM) | B (25 μM<EC99≤100 μM) | S (EC99≤12.5 μM) | S (EC99≤12.5 μM) | A (12.5 μM<EC75≤25 μM)
